Test results from US6936585B2, “Corticotropin releasing factor 2 receptor agonists” (priority 2002, dated 2005).
Peptide text beside a SMILES is read from it.

How the values were obtained:
[1] = molecular target: T1, CRF2R (Homo sapiens, UniProt Q13324); assay: CRF2R agonist activation (EC50 / Emax), called comparative CRF binding; assay type: cell-based; conditions: for Emax: read-out: CRF2R Emax; for EC50: read-out: CRF2R EC50
T1 sequence (Q13324 1-411): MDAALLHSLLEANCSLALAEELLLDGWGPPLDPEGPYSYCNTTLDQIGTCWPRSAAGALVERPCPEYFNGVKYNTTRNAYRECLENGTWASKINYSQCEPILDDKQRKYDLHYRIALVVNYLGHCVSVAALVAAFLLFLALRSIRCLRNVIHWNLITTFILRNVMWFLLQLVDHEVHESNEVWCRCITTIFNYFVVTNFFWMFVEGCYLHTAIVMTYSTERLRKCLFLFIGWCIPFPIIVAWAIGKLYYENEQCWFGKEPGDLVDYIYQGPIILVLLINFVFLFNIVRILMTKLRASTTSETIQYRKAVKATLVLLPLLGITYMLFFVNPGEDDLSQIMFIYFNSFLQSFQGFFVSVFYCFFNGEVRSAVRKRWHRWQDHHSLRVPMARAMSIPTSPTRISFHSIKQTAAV
In short: (§1)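 Agonism is scored from cAMP rise, assayed in lysates or through CRE-driven reporter expression, after peptide contact with cells bearing human CRF2R or CRF1R, compared against vehicle-treated cells.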

[2] = molecular target: T2, CRF1R (Homo sapiens, UniProt P34998); assay: CRF1R agonist activation (EC50 / Emax), called comparative CRF binding; assay type: cell-based; conditions: for Emax: read-out: CRF1R Emax; for EC50: read-out: CRF1R EC50
T2 sequence (P34998 24-415): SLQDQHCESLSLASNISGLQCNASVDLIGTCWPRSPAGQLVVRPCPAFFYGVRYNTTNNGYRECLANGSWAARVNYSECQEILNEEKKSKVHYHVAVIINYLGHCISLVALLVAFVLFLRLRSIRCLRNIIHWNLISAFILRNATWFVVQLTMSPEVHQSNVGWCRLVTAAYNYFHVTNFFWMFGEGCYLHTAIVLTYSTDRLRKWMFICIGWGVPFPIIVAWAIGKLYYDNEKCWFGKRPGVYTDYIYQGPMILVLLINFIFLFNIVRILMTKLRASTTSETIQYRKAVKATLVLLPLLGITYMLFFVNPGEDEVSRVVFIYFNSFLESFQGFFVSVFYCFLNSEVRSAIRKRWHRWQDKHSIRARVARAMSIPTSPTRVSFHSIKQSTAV
In short: as §1

Q: How did the Emax [1] turn out when `CC[C@H](C)[C@H](N)C(=O)N[C@H](C(=O)N[C@@H](CC(C)C)C(=O)N[C@@H](CO)C(=O)N[C@@H](CC(C)C)C(=O)N[C@@H](CC(=O)O)C(=O)N[C@H](C(=O)N1CCC[C@H]1C(=O)N[C@H](C(=O)NCC(=O)N[C@@H](CC(C)C)C(=O)N[C@@H](CC(C)C)C(=O)N[C@@H](CCC(N)=O)C(=O)N[C@H](C(=O)N[C@@H](CC(C)C)C(=O)N[C@@H](CC(C)C)C(=O)N[C@@H](CCC(=O)O)C(=O)N[C@@H](CCCCN)C(=O)N[C@@H](C)C(=O)N[C@@H](C)C(=O)N[C@@H](C)C(=O)N[C@@H](CCC(=O)O)C(=O)N[C@@H](C)C(=O)N[C@@H](CCC(=O)O)C(=O)N[C@@H](C)C(=O)N[C@@H](C)C(=O)N[C@@H](C)C(=O)N[C@@H](CCCCN)C(=O)N[C@@H](C)C(=O)N[C@@H](C)C(=O)N[C@@H](CCC(N)=O)C(=O)N[C@@H](CCC(=O)O)C(=O)N[C@@H](CCC(N)=O)C(=O)N[C@H](C(=O)N[C@@H](CC(C)C)C(=O)N[C@@H](C)C(=O)N[C@@H](Cc1c[nH]cn1)C(=O)N[C@H](C(N)=O)C(C)C)[C@@H](C)CC)[C@@H](C)CC)[C@@H](C)CC)C(C)C)C(C)C` [compound 366] (H-IVLSLDVPIGLLQILLEKAAAEAEAAAKAAQEQILAHV-NH2) was run?
A: 46%

Q: What about the Emax [2] of the same molecule?
A: 9%

Q: How did the EC50 [1] turn out when `CC[C@H](C)[C@H](NC(=O)[C@H](CCCNC(=N)N)NC(=O)[C@H](C)NC(=O)[C@H](CC(N)=O)NC(=O)[C@H](CCC(N)=O)NC(=O)[C@H](CCC(=O)O)NC(=O)[C@H](C)NC(=O)[C@H](CCCNC(=N)N)NC(=O)[C@H](CCC(=O)O)NC(=O)[C@H](CCCNC(=N)N)NC(=O)[C@H](CCC(N)=O)NC(=O)[C@H](CO)NC(=O)[C@H](CCC(N)=O)NC(=O)[C@@H](NC(=O)[C@H](CCCCN)NC(=O)[C@H](CCC(=O)O)NC(=O)[C@H](CC(C)C)NC(=O)[C@H](CCC(=O)O)NC(=O)[C@H](CC(C)C)NC(=O)[C@H](CC(C)C)NC(=O)[C@@H](NC(=O)[C@H](CCCNC(=N)N)NC(=O)[C@H](CC(C)C)NC(=O)[C@H](CC(C)C)NC(=O)[C@@H](NC(=O)[C@H](CC(C)C)NC(=O)[C@@H]1CCCN1C(=O)[C@H](CC(C)C)NC(=O)[C@H](CC(=O)O)NC(=O)[C@@H](NC(=O)[C@H](CO)NC(=O)[C@H](CC(C)C)NC(=O)[C@H](CO)NC(=O)[C@@H]1CCCN1C(=O)[C@H](CC(N)=O)NC(=O)[C@@H](N)CC(=O)O)[C@@H](C)CC)[C@@H](C)CC)[C@@H](C)O)[C@@H](C)O)C(=O)N[C@@H](Cc1ccccc1)C(=O)N[C@@H](CC(=O)O)C(=O)N[C@@H](CCCNC(=N)N)C(=O)N[C@H](C(N)=O)C(C)C` [compound 337] (H-DNPSLSIDLPLILLRTLLELEKTQSQRERAEQNARIFDRV-NH2; N-terminus assumed) was run?
A: 23.9 nM

Q: And the Emax [1]?
A: 86.7%

Q: And the EC50 [2]?
A: ≥ 1000 nM

Q: And the Emax [2]?
A: 36.5%

Q: Which Emax [1] does the source give for `CC[C@H](C)[C@H](N)C(=O)N[C@H](C(=O)N[C@@H](CC(C)C)C(=O)N[C@@H](CO)C(=O)N[C@@H](CC(C)C)C(=O)N[C@@H](CC(=O)O)C(=O)N[C@H](C(=O)N1CCC[C@H]1C(=O)N[C@H](C(=O)NCC(=O)N[C@@H](CC(C)C)C(=O)N[C@@H](CC(C)C)C(=O)N[C@@H](CCC(N)=O)C(=O)N[C@H](C(=O)N[C@@H](CC(C)C)C(=O)N[C@@H](CC(C)C)C(=O)N[C@@H](CCC(=O)O)C(=O)N[C@@H](CCC(N)=O)C(=O)N[C@@H](C)C(=O)N[C@@H](CCCNC(=N)N)C(=O)N[C@@H](CCC(N)=O)C(=O)N[C@@H](CCCNC(=N)N)C(=O)N[C@@H](C)C(=O)N[C@@H](C)C(=O)N[C@@H](CCCNC(=N)N)C(=O)N[C@@H](CCC(=O)O)C(=O)N[C@@H](CCC(N)=O)C(=O)N[C@@H](C)C(=O)N[C@H](C(=O)N[C@H](C(=O)N[C@@H](CC(N)=O)C(=O)N[C@@H](C)C(=O)N[C@@H](CCCNC(=N)N)C(=O)N[C@H](C(=O)N[C@@H](CC(C)C)C(=O)N[C@@H](C)C(=O)N[C@@H](CCCNC(=N)N)C(=O)N[C@H](C(N)=O)C(C)C)[C@@H](C)CC)[C@@H](C)O)[C@@H](C)O)[C@@H](C)CC)[C@@H](C)CC)C(C)C)C(C)C` [compound 114] (H-IVLSLDVPIGLLQILLEQARQRAAREQATTNARILARV-NH2; N-terminus assumed) here?
A: 100%

Q: And the Emax [2]?
A: 6%

Q: How did the Emax [1] turn out when `CC[C@H](C)[C@H](NC(=O)[C@H](CCC(=O)O)NC(=O)[C@H](C)NC(=O)[C@H](CC(N)=O)NC(=O)[C@H](CCC(N)=O)NC(=O)[C@H](CCC(=O)O)NC(=O)[C@H](C)NC(=O)[C@H](CCCNC(=N)N)NC(=O)[C@H](CCC(=O)O)NC(=O)[C@H](CCCNC(=N)N)NC(=O)[C@H](CCC(N)=O)NC(=O)[C@H](CO)NC(=O)[C@H](CCC(N)=O)NC(=O)[C@@H](NC(=O)[C@H](CCCCN)NC(=O)[C@H](CCC(=O)O)NC(=O)[C@H](CC(C)C)NC(=O)[C@H](CCC(=O)O)NC(=O)[C@H](CC(C)C)NC(=O)[C@H](CC(C)C)NC(=O)[C@@H](NC(=O)[C@H](CCCNC(=N)N)NC(=O)[C@H](CC(C)C)NC(=O)[C@H](CC(C)C)NC(=O)[C@H](CC(C)C)NC(=O)[C@H](CC(C)C)NC(=O)[C@@H]1CCCN1C(=O)[C@H](CC(C)C)NC(=O)[C@H](CC(=O)O)NC(=O)[C@@H](NC(=O)[C@H](CO)NC(=O)[C@H](CC(C)C)NC(=O)[C@H](CO)NC(=O)[C@@H]1CCCN1C(=O)[C@H](CC(N)=O)NC(=O)[C@@H](N)CC(=O)O)[C@@H](C)CC)[C@@H](C)O)[C@@H](C)O)C(=O)N[C@@H](Cc1ccccc1)C(=O)N[C@@H](C)C(=O)N[C@@H](CCC(=O)O)C(=O)N[C@H](C(N)=O)C(C)C` [compound 323] (H-DNPSLSIDLPLLLLRTLLELEKTQSQRERAEQNAEIFAEV-NH2; N-terminus assumed) was run?
A: 100%

Q: What about the Emax [2] of the same molecule?
A: 36.9%

Q: Which results are given for `CC[C@H](C)[C@H](NC(=O)[C@H](C)NC(=O)[C@H](CC(N)=O)NC(=O)[C@H](CCC(N)=O)NC(=O)[C@H](CCC(=O)O)NC(=O)[C@H](C)NC(=O)[C@H](CCCNC(=N)N)NC(=O)[C@H](CCC(=O)O)NC(=O)[C@H](CCCNC(=N)N)NC(=O)[C@H](CCC(N)=O)NC(=O)[C@H](CO)NC(=O)[C@H](CCC(N)=O)NC(=O)[C@@H](NC(=O)[C@H](CCCCN)NC(=O)[C@H](CCC(=O)O)NC(=O)[C@H](CC(C)C)NC(=O)[C@H](CCC(=O)O)NC(=O)[C@H](CC(C)C)NC(=O)[C@H](CC(C)C)NC(=O)[C@@H](NC(=O)[C@H](CCCNC(=N)N)NC(=O)[C@H](CC(C)C)NC(=O)[C@H](CC(C)C)NC(=O)[C@H](CC(C)C)NC(=O)[C@H](CC(C)C)NC(=O)[C@@H]1CCCN1C(=O)[C@H](CC(C)C)NC(=O)[C@H](CC(=O)O)NC(=O)[C@@H](NC(=O)[C@H](CO)NC(=O)[C@H](CC(C)C)NC(=O)[C@H](CO)NC(=O)[C@@H]1CCCN1)[C@@H](C)CC)[C@@H](C)O)[C@@H](C)O)C(=O)N[C@H](C(=O)N[C@@H](Cc1ccccc1)C(=O)N[C@@H](C)C(=O)N[C@@H](CO)C(=O)N[C@H](C(N)=O)C(C)C)[C@@H](C)CC` [compound 344] (H-PSLSIDLPLLLLRTLLELEKTQSQRERAEQNAIIFASV-NH2)?
A: Emax [1]: 94.5%; Emax [2]: 77.7%

Q: What does the source list for `CC[C@H](C)[C@H](NC(=O)[C@H](CCCNC(=N)N)NC(=O)[C@H](C)NC(=O)[C@H](CC(N)=O)NC(=O)[C@H](CCC(N)=O)NC(=O)[C@H](CCC(=O)O)NC(=O)[C@H](C)NC(=O)[C@H](CCCNC(=N)N)NC(=O)[C@H](CCC(=O)O)NC(=O)[C@H](CCCNC(=N)N)NC(=O)[C@H](CCC(N)=O)NC(=O)[C@H](CO)NC(=O)[C@H](CCC(N)=O)NC(=O)[C@@H](NC(=O)[C@H](CCCCN)NC(=O)[C@H](CCC(=O)O)NC(=O)[C@H](CC(C)C)NC(=O)[C@H](CCC(=O)O)NC(=O)[C@H](CC(C)C)NC(=O)[C@H](CC(C)C)NC(=O)[C@@H](NC(=O)[C@H](CCCNC(=N)N)NC(=O)[C@H](CC(C)C)NC(=O)[C@H](CC(C)C)NC(=O)[C@@H](NC(=O)[C@H](CC(C)C)NC(=O)[C@@H]1CCCN1C(=O)[C@H](CC(C)C)NC(=O)[C@H](CC(=O)O)NC(=O)[C@@H](NC(=O)[C@H](CO)NC(=O)[C@H](CC(C)C)NC(=O)[C@H](CO)NC(=O)[C@@H]1CCCN1C(=O)[C@H](CC(N)=O)NC(=O)[C@@H](N)CC(=O)O)[C@@H](C)CC)[C@@H](C)CC)[C@@H](C)O)[C@@H](C)O)C(=O)N[C@@H](Cc1ccccc1)C(=O)N[C@@H](C)C(=O)N[C@@H](CCCNC(=N)N)C(=O)N[C@H](C(N)=O)C(C)C` [compound 335] (H-DNPSLSIDLPLILLRTLLELEKTQSQRERAEQNARIFARV-NH2; N-terminus assumed)?
A: EC50 [1]: 28 nM; Emax [1]: 91%; EC50 [2]: ≥ 1000 nM; Emax [2]: 49.5%
